Source: US20070142395A1, “Treatment of sexual dysfunction with 1-[3-[4-(3-chlorophenyl)-1-piperazinyl]propyl]-5-methoxy-3,4-dihydro-2(1H)-quinolone or salt thereof” (Vela Pharmaceuticals, Inc., priority 2005, published 2007)

Tested on: patients with MDD
Test: CSFQ shift analysis (sexual dysfunction / no sexual dysfunction by threshold), same clinical study
Assay type: in vivo, Humans
Settings: shift baseline to Day 56, LOCF, 5 mg BID
Experimental: A double-blind, randomized, placebo-controlled, parallel-group study was performed to evaluate the efficacy, safety and tolerability of OPC-14523 in patients with MDD. The patients selected for participation in the trial had to meet DSM-IV-TR criteria for MDD (296.2x or 296.3x; diagnosis via MINI) and had had symptoms of depression for at least 2 months before the start of the double-blind treatment. Among other drugs prohibited during the study, patients were prohibited from taking drugs used to enhance sexual function, including, but not limited to, sildenafil, tadalafil and vardenafil, or taking psychopharmacologic drugs.
Each patient was expected to participate for up to 10 weeks. The 10 weeks included: i) a 4- to 10-day screening period, during which potential participants were administered placebo in a single-blind manner; ii) an 8-week double-blind treatment period; and iii) a 4- to 10- day post-treatment visit period. Baseline evaluations, including assessment of sexual function, were conducted on Day −1. The next day, Day 1, the double-blind medication was begun. All treatment was on an outpatient basis.
The dosages studied were 5 mg BID OPC-14523 (10 mg total daily dose of immediate release tablet of Example 1) and placebo. The drugs were taken after meals in the morning and in the evening, about 12 hours apart.
Data on sexual function were collected using the Changes in Sexual Function Questionnaire (CSFQ). The CSFQ is a 14-item self-report measure of sexual functioning vis-â-vis experiences of pleasure, desire, arousal, and orgasm, with a 5-point response option for each item. The 14-item validated CSFQ was developed from a questionnaire comprising 35 and 36 items for female and male respondents, respectively (Clayton et al., Psychopharmacol Bull. 33(4):731-45 (1997) and Clayton et al., Psychopharmacol Bull. 33(4):747-53 (1997), each incorporated herein by reference in its entirety). The CSFQ has also been independently validated (Bobes et al., J Sex Marital Ther. 26(2): 119-31(2000)). The 14-item CSFQ includes items 8, 11, 14, 19-24 from the interview version of the CSFQ (“CSFQ-I”); Clayton et al., Psychopharmacol Bull. 33(4):731-45 (1997)). The CSFQ differs for men and women, reflecting some variation in wording of items. Males were given the male clinical version, CSFQ-M-C, and women were given the female clinical version, CSFQ-F-C. CSFQ-F-C includes items 25, 27, 28, 30 and 31 from the questions for women on the CSFG-I. CSFQ-M-C includes items 28-32 from the questions for men on the CSFQ-I, as well as item 25 from the questions for women.
The 14-item CSFQ has subscales for sexual pleasure (1 item), desire/frequency (2 items), desire/interest (3 items), arousal (3 items), and orgasm (3 items). In addition, a 14-item total score may be calculated. Higher scores are indicative of more favorable sexual functioning. Threshold scores for total and sub-scales have been defined. A score below the threshold score indicates dysfunction.
The construction of shift tables is a routine analysis that is often carried out in the analysis of clinical trial data. For the data herein, the analysis was constructed by categorizing the subjects' scores at baseline and then separately at Day 56 according to having sexual dysfunction (SD) or no sexual dysfunction (NSD). These categories were defined by the threshold values specified in the CSFQ (see Table 4). The cross-classification of the baseline categories with the Day 56 categories results in a 2×2 table with the cells NSD/NSD, NSD/SD, SD/NSD, and SD/SD. Two categories represent the number and percent of subjects who stayed in the same category from baseline to Day 56 (NSD/NSD and SD/SD cells). The other two categories represent the number and percentage of subjects who shifted either for better (SD/NSD cell) or worse (NSD/SD cell). In the tables below, “remained low” refers to the SD/SD category. […]

## COc1cccc2c1CCC(=O)N2CCCN1CCN(c2cccc(Cl)c2)CC1 [OPC-14523, 1-[3-[4-(3-chlorophenyl)-1-piperazinyl]propyl]-5-methoxy-3,4-dihydro-2(1H)-quinolone]
All patients (men and women)
  CSFQ Arousal/Excitement: Improved (Low→Normal), %: 6%
  CSFQ Arousal/Excitement: Remained Low, %: 84%
  CSFQ Arousal/Excitement: Remained Normal, %: 7%
  CSFQ Arousal/Excitement: Worsened (Normal→Low), %: 3 (3%)
  CSFQ Desire/Frequency: Improved (Low→Normal), %: 13%
  CSFQ Desire/Frequency: Remained Low, %: 75%
  CSFQ Desire/Frequency: Remained Normal, %: 9%
  CSFQ Desire/Frequency: Worsened (Normal→Low), %: 3%
  CSFQ Desire/Interest: Improved (Low→Normal), %: 7%
  CSFQ Desire/Interest: Remained Low, %: 78%
  CSFQ Desire/Interest: Remained Normal, %: 12%
  CSFQ Desire/Interest: Worsened (Normal→Low), %: 3 (3%)
  CSFQ Orgasm/Completion: Improved (Low→Normal), %: 12%
  CSFQ Orgasm/Completion: Remained Low, %: 64%
  CSFQ Orgasm/Completion: Remained Normal, %: 17%
  CSFQ Orgasm/Completion: Worsened (Normal→Low), %: 7%
  CSFQ Pleasure: Improved (Low→Normal), %: 5%
  CSFQ Pleasure: Remained Low, %: 91%
  CSFQ Pleasure: Remained Normal, %: 3%
  CSFQ Pleasure: Worsened (Normal→Low), %: 0 (0%)
  CSFQ Total Score: Improved (Low→Normal), %: 16%
  CSFQ Total Score: Remained Low, %: 42%
  CSFQ Total Score: Remained Normal, %: 39%
  CSFQ Total Score: Worsened (Normal→Low), %: 3 (3%)
Men only
  CSFQ Arousal/Excitement: Improved (Low→Normal), %: 2%
  CSFQ Arousal/Excitement: Remained Low, %: 79%
  CSFQ Arousal/Excitement: Remained Normal, %: 15%
  CSFQ Arousal/Excitement: Worsened (Normal→Low), %: 4%
  CSFQ Desire/Frequency: Improved (Low→Normal), %: 13%
  CSFQ Desire/Frequency: Remained Low, %: 77%
  CSFQ Desire/Frequency: Remained Normal, %: 9%
  CSFQ Desire/Frequency: Worsened (Normal→Low), %: 2%
  CSFQ Desire/Interest: Improved (Low→Normal), %: 2%
  CSFQ Desire/Interest: Remained Low, %: 81%
  CSFQ Desire/Interest: Remained Normal, %: 17%
  CSFQ Desire/Interest: Worsened (Normal→Low), %: 0 (0%)
  CSFQ Orgasm/Completion: Improved (Low→Normal), %: 9%
  CSFQ Orgasm/Completion: Remained Low, %: 68%
  CSFQ Orgasm/Completion: Remained Normal, %: 15%
  CSFQ Orgasm/Completion: Worsened (Normal→Low), %: 9%
  CSFQ Pleasure: Improved (Low→Normal), %: 2%
  CSFQ Pleasure: Remained Low, %: 91%
  CSFQ Pleasure: Remained Normal, %: 6%
  CSFQ Pleasure: Worsened (Normal→Low), %: 0 (0%)
  CSFQ Total Score: Improved (Low→Normal), %: 15%
  CSFQ Total Score: Remained Low, %: 40%
  CSFQ Total Score: Remained Normal, %: 43%
  CSFQ Total Score: Worsened (Normal→Low), %: 2%
Women only
  CSFQ Arousal/Excitement: Improved (Low→Normal), %: 9%
  CSFQ Arousal/Excitement: Remained Low, %: 88%
  CSFQ Arousal/Excitement: Remained Normal, %: 1 (1%)
  CSFQ Arousal/Excitement: Worsened (Normal→Low), %: 1 (1%)
  CSFQ Desire/Frequency: Improved (Low→Normal), %: 13%
  CSFQ Desire/Frequency: Remained Low, %: 74%
  CSFQ Desire/Frequency: Remained Normal, %: 9%
  CSFQ Desire/Frequency: Worsened (Normal→Low), %: 4%
  CSFQ Desire/Interest: Improved (Low→Normal), %: 10%
  CSFQ Desire/Interest: Remained Low, %: 76%
  CSFQ Desire/Interest: Remained Normal, %: 9%
  CSFQ Desire/Interest: Worsened (Normal→Low), %: 4%
  CSFQ Orgasm/Completion: Improved (Low→Normal), %: 15%
  CSFQ Orgasm/Completion: Remained Low, %: 61%
  CSFQ Orgasm/Completion: Remained Normal, %: 18%
  CSFQ Orgasm/Completion: Worsened (Normal→Low), %: 6%
  CSFQ Pleasure: Improved (Low→Normal), %: 7%
  CSFQ Pleasure: Remained Low, %: 91%
  CSFQ Pleasure: Remained Normal, %: 1 (1%)
  CSFQ Pleasure: Worsened (Normal→Low), %: 0 (0%)
  CSFQ Total Score: Improved (Low→Normal), %: 16%
  CSFQ Total Score: Remained Low, %: 43%
  CSFQ Total Score: Remained Normal, %: 37%
  CSFQ Total Score: Worsened (Normal→Low), %: 3%
